Target: T1, zebrafish mPRα (membrane progestin receptor alpha, Paqr7) (Danio rerio, UniProt Q801G2)
T1 sequence (Q801G2 1-354): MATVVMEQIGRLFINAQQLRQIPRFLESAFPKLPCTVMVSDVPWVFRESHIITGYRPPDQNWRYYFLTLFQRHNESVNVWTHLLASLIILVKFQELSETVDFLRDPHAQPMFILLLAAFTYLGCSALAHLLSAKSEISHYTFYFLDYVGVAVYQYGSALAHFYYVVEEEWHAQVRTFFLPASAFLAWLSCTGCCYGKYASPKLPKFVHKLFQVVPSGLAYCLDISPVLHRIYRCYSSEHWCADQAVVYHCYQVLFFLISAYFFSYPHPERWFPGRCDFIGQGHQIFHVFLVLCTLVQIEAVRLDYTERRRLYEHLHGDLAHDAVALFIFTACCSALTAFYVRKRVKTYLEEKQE
Assay: [3H]-DHP competitive radioligand binding, filtration assay

Row | SMILES | IC50
1 | C[C@@H](O)[C@@]1(O)CC[C@H]2[C@@H]3CCC4=CC(=O)CC[C@]4(C)[C@H]3CC[C@@]21C [DHP, 17, 20β-dihydroxy-4-pregnen-3-one] | ~0.1 µM
2 | C=C[C@]12CCC(=O)C=C1CC[C@H]1[C@@H]3CC[C@H](C(C)=O)[C@@]3(C)CC[C@@H]12 [02–0, l0-ethenyl-l9-norprogesterone] | 2 µM
